From patent US20080292723A1, “Bioactive acid agrichemical compositions and use thereof” (priority 2007, published 2008)

Assays:
E. amylovora 153N = experiment: Fire blight on crabapples; type: in vivo, Snow Drift crabapple trees; conditions: for canker, in words / shoot blight incidence, in words: day 63
Experimental: A study of the bioefficacy of the various agrichemical compositions, including bioactive acid solutions and blends thereof with an antibiotic agrichemical, were evaluated to assess their bioefficacy against fire blight on crabapples. The study was conducted on 5 year old Snow Drift crabapple trees, with each of the compositions being applied to ten trees in two-subplots of five trees, four different times: at 100% bloom-day 1, a second application was made on day 4, a third on day 11 and a final treatment on day 19. The trees were inoculated with E. amylovora […] at a concentration of 4×10^6 cells per milliliter on day 1, following drying of the treatment, with the inoculation being repeated on day 13. Evaluation for fire blight was completed on 100 blossoms for each of the subplots on day 12, day 19 and day 27. Additionally, the incidence of shoot infection and the length of […] evaluated on day 63. The test compositions were prepared by forming solutions of the bioactive agents. Two different dilutions of the MI2 bioactive were evaluated, the first employing 94.46 ml/gallon (25 ml/l) of water (5 ppm of each metal) and the second 188.9 ml/gallon (50 ml/l) of water (10 ppm of each metal). […] Finally, copper hydroxide was diluted at a rate of 1 lb/gallon (119.8 g/l). Each of the compositions and blends were spray applied at a rate of 50 gallons (189.3 l) pre acre. The results are presented as the mean of the counts.

[1] = tested on: Saccharomycetes Cerevisiae (Fleishmann's Bakers yeast); experiment: Yeast growth inhibition by turbidity; type: cell-based; conditions: Table 12, surfactant ~0.05 wt %, neat additive, Metal 0 ppm
Experimental: Saccharomycetes Cerevisiae was selected as a test organism as it is generally accepted in the industry as an indicator or surrogate organism for a wide variety of fungi. In each of these experiments, the same general procedure was followed unless otherwise indicated.
Experimental Detail: A growth medium was prepared by adding 10 grams of nutrient medium (Difco Sabouraud dextrose broth from BD of Franklin Lakes, N.J., USA) to 300 ml of distilled water. Fleishmann's Bakers yeast was then added to the growth medium while mixing using a magnetic stirrer until a uniform dispersion was obtained having an initial turbidity of between about 50 and 100 NTU as measured using a HF Instruments DRT 100B Turbidity Meter. […] The system/component to be evaluated was then added to the vial and intimately shaken to ensure a good, substantially homogeneous mixture. The turbidity of each mixture was then determined and the vial transferred to an incubator at 30° C. Each vial was periodically removed from the incubator and the mixture in the vials assessed for turbidity: the specific timing for such evaluation was as set forth in the discussion of the experiments and the accompanying tables. […]
In the tables below, the results are presented as the actual turbidity readings (NTU) with a sub-table presenting the change or delta in NTU values. […]

[H]/N=C(/N)N[C@H]1[C@H](O)[C@@H](O)[C@H](O[C@@H]2O[C@@H](C)[C@](O)(C=O)[C@H]2O[C@@H]2O[C@@H](CO)[C@H](O)[C@@H](O)[C@@H]2NC)[C@@H](N/C(N)=N\[H])[C@@H]1O [streptomycin]
canker, in words (E. amylovora 153N): appeared to prevent canker | shoot blight incidence, in words (E. amylovora 153N): greatly reduced

CCCCCCCCCCCCOS(=O)(=O)[O-].[Na+]
T0 (turbidity) [1]: 48

[Cu+2].[OH-].[OH-] [copper hydroxide]
Shoot Incidence (E. amylovora 153N; Day 63, rate 5 lbs/a (2.27 kg/a), mean of counts): 1.0 | canker, in words (E. amylovora 153N): appeared to prevent canker | shoot blight incidence, in words (E. amylovora 153N): greatly reduced
